According to the supplement of paper PMC10307832:

Key:
Experiment in all cases: relative viability (nuclei count vs DMSO), 5 days (fraction); higher = more cells survive
[1] = compound: CC1=C(C(=O)N2C=CSC2=N1)CCN3CCC(=C(C4=CC=CC=C4)C5=CC=C(C=C5)F)CC3 + COc1cc2c(Oc3ccc(NC(=O)C4(C(=O)Nc5ccc(F)cc5)CC4)cc3F)ccnc2cc1OCCCN1CCOCC1 [Foretinib] (partner 0.25 µM)
Method in brief: (§1)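 One day after seeding in 1536-well plates, lung cancer cell lines were dosed by pin tool. Dosing was either single-drug or a fixed anchor-drug dose plus five library-drug doses (not always all listed) in √10 steps. After 5 days, nuclei were stained in one fix-and-stain step and counted on 4× images, and relative viability is the nuclei count of treated wells over that of vehicle wells, given as the median of duplicate plates.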

[2] = compound: CC1=C(C(=O)N2C=CSC2=N1)CCN3CCC(=C(C4=CC=CC=C4)C5=CC=C(C=C5)F)CC3 + O=C(c1cc(Cc2n[nH]c(=O)c3ccccc23)ccc1F)N1CCN(C(=O)C2CC2)CC1 [Olaparib] (partner 8 µM)
Method in brief: as §1

[3] = compound: CC1=C(C(=O)N2C=CSC2=N1)CCN3CCC(=C(C4=CC=CC=C4)C5=CC=C(C=C5)F)CC3 + Cc1nc(NC(=O)N2CCC[C@H]2C(N)=O)sc1-c1ccnc(C(C)(C)C(F)(F)F)c1 [Alpelisib] (partner 2 µM)
Method in brief: as §1

[4] = compound: CC1=C(C(=O)N2C=CSC2=N1)CCN3CCC(=C(C4=CC=CC=C4)C5=CC=C(C=C5)F)CC3 + Nc1nc2[nH]cc(CCc3ccc(C(=O)N[C@@H](CCC(=O)O)C(=O)O)cc3)c2c(=O)[nH]1 [Pemetrexed] (partner 0.2 µM)
Method in brief: as §1

Row | Cell Line | relative viability ([1]; first compound 0.08 µM) | relative viability ([1]; first compound 0.253 µM) | relative viability ([1]; first compound 0.8 µM) | relative viability ([1]; first compound 2.53 µM) | relative viability ([1]; first compound 8 µM) | relative viability ([2]; first compound 0.08 µM) | relative viability ([2]; first compound 0.253 µM) | relative viability ([2]; first compound 0.8 µM) | relative viability ([2]; first compound 2.53 µM) | relative viability ([2]; first compound 8 µM) | relative viability ([3]; first compound 0.08 µM) | relative viability ([3]; first compound 0.253 µM) | relative viability ([3]; first compound 0.8 µM) | relative viability ([3]; first compound 2.53 µM) | relative viability ([3]; first compound 8 µM) | relative viability ([4]; first compound 0.08 µM) | relative viability ([4]; first compound 0.253 µM) | relative viability ([4]; first compound 0.8 µM) | relative viability ([4]; first compound 2.53 µM) | relative viability ([4]; first compound 8 µM)
1 | NCI-H1651 | 0.747 | 0.884 | 0.912 | 0.822 | 0.558 | 0.165 | 0.176 | 0.189 | 0.217 | 0.183 | 1.19 | 0.972 | 1.03 | 0.88 | 0.785 | 0.756 | 0.611 | 0.545 | 0.644 | 0.574
2 | LK-2 | 1.35 | 1.07 | 1.18 | 1.33 | 0.794 | 0.726 | 0.728 | 0.736 | 0.756 | 0.514 | 1.24 | 1.19 | 1.23 | 1.08 | 0.773 | 0.243 | 0.286 | 0.285 | 0.281 | 0.181
3 | NCI-H2126 | 1.08 | 1.1 | 1.19 | 1.22 | 0.927 | 1.07 | 0.855 | 0.975 | 0.968 | 0.695 | 0.764 | 0.766 | 0.742 | 0.816 | 0.785 | 0.587 | 0.758 | 0.713 | 0.721 | 0.511
4 | EPLC-272H | 0.658 | 0.622 | 0.657 | 0.677 | 0.576 | 0.693 | – | 0.911 | 0.758 | 0.742 | – | 0.878 | 1.05 | 0.852 | 0.737 | 0.335 | – | 0.333 | 0.288 | 0.416
5 | NCI-H2170 | 0.874 | 1.03 | 1.11 | 1.06 | 0.674 | 0.674 | 0.538 | 0.635 | 0.717 | 0.394 | 0.753 | 0.771 | 0.844 | 0.836 | 0.76 | 0.278 | 0.269 | 0.28 | 0.271 | 0.248
6 | LXF-289 | 1 | 1.01 | 1.01 | 1.01 | 0.879 | 0.987 | 1.32 | 1.07 | 1 | 0.635 | 1.06 | 1.07 | 1.08 | 1.03 | 0.917 | 0.931 | 0.883 | 0.871 | 0.901 | 0.76
7 | NCI-H838 | 0.827 | 1.03 | 1.04 | 1.12 | 0.9 | 0.747 | 0.801 | 0.849 | 0.925 | 0.604 | 0.964 | 0.979 | 1.02 | 1.32 | 0.773 | 0.254 | 0.252 | 0.259 | 0.246 | 0.223
8 | NCI-H2347 | – | 0.835 | 0.523 | 1.16 | 0.837 | 0.58 | 0.571 | 0.616 | 0.549 | 0.598 | 0.942 | 0.855 | 1.18 | 1.02 | 0.791 | 0.398 | 0.482 | 0.441 | 0.454 | 0.409
9 | BEN | 0.708 | 0.74 | 0.639 | 0.677 | 0.595 | 1.07 | 1.22 | 1.09 | 1.06 | 0.89 | 0.826 | 1.09 | 1.09 | 0.974 | 0.69 | 0.928 | 0.753 | 0.715 | 0.942 | 0.753
10 | LU99A | 0.793 | 0.771 | 0.832 | 0.822 | 0.802 | 0.151 | 0.244 | 0.234 | 0.254 | 0.227 | 0.47 | 0.47 | 0.496 | 0.621 | 0.456 | 0.167 | 0.193 | 0.164 | 0.168 | 0.152
11 | NCI-H1755 | 0.907 | 0.888 | 0.892 | 0.912 | 0.762 | 0.892 | 0.995 | 0.939 | 0.934 | 0.719 | 0.807 | 0.856 | 0.994 | 1.07 | 0.69 | 0.456 | 0.437 | 0.41 | 0.405 | 0.38
12 | NCI-H1437 | 1.23 | 1.32 | 1.31 | 1.34 | 0.841 | 0.658 | 0.692 | 0.66 | 0.692 | 0.51 | – | 1.01 | 1.09 | 1.21 | 0.729 | 0.338 | 0.371 | 0.323 | 0.35 | 0.235
13 | NCI-H2085 | 0.882 | 1.05 | 1.07 | 1.05 | 0.7 | 0.805 | 0.776 | 0.807 | 0.783 | 0.735 | 0.869 | 0.909 | 0.928 | 0.943 | 0.773 | 0.966 | 0.964 | 0.759 | 0.955 | 0.883
14 | RERF-LC-KJ | 0.794 | 0.92 | 0.917 | 0.846 | 0.561 | 0.968 | 0.819 | 0.845 | 0.89 | 0.706 | 0.743 | 0.844 | 0.8 | 0.758 | 0.633 | 0.502 | 0.476 | 0.439 | 0.486 | 0.481
15 | LOU-NH91 | 0.91 | 0.926 | 1.03 | 0.942 | 0.906 | 0.872 | 0.845 | 0.928 | 0.946 | 0.813 | 0.687 | 0.709 | 0.807 | 0.749 | 0.677 | 0.303 | 0.3 | 0.438 | 0.387 | 0.346
16 | NCI-H2228 | 0.689 | 0.645 | 1.13 | 0.864 | 0.55 | 0.591 | 0.701 | 0.723 | 0.728 | 0.347 | 0.75 | 0.829 | 0.734 | 0.595 | 0.786 | 0.406 | 0.37 | 0.375 | 0.362 | 0.278
17 | NCI-H322M | 0.86 | 1.01 | 1.11 | 0.942 | 0.9 | 0.74 | 0.801 | 0.678 | 0.813 | 0.738 | 0.769 | 0.85 | 0.897 | 0.804 | 0.8 | 0.686 | 0.622 | 0.555 | 0.706 | 0.683
18 | NCI-H1734 | 0.991 | 0.913 | 0.72 | 0.992 | 0.555 | 0.554 | 0.526 | 0.624 | 0.767 | 0.396 | 0.727 | 0.648 | 0.718 | 0.713 | 0.422 | 0.487 | 0.452 | 0.391 | 0.424 | 0.399
19 | HOP-62 | 1.17 | 0.995 | 1.14 | 1.06 | 0.705 | 0.388 | 0.461 | 0.445 | 0.434 | 0.352 | 0.974 | 0.852 | 0.971 | 0.945 | 0.56 | 0.335 | 0.315 | 0.306 | 0.336 | 0.12
20 | HCC-366 | 0.935 | 1 | 1.01 | 1 | 0.662 | 0.331 | 0.287 | 0.469 | 0.464 | 0.226 | – | 0.428 | 0.471 | 0.605 | 0.243 | 0.199 | 0.169 | 0.206 | 0.156 | 0.139
21 | LCLC-103H | 0.864 | 0.567 | 0.732 | 0.761 | 0.496 | 0.876 | 0.71 | 0.859 | 0.735 | 0.667 | 1.08 | 1 | 1.12 | 1.01 | 0.918 | 0.542 | 0.464 | 0.437 | 0.437 | 0.49
22 | NCI-H358 | 0.568 | 0.665 | 0.695 | 0.87 | 0.483 | 0.654 | 0.611 | 0.613 | 0.774 | 0.502 | 0.821 | 0.912 | 0.744 | 1.07 | 0.553 | 0.204 | 0.196 | 0.16 | 0.179 | 0.162
23 | SK-MES-1 | 0.979 | 1.07 | 0.928 | 0.731 | 0.864 | 0.961 | 0.583 | 0.725 | 0.827 | 0.64 | 0.881 | 0.944 | 0.835 | 0.87 | 0.554 | 1.11 | 1.05 | 0.97 | 1.02 | 0.829
24 | NCI-H1915 | 1.1 | 0.964 | 1.1 | 1.18 | 0.535 | 0.254 | 0.272 | 0.284 | 0.238 | 0.223 | 1.1 | 1.11 | 1.07 | 1.06 | 0.782 | 0.576 | 0.44 | 0.493 | 0.517 | 0.44
25 | NCI-H1666 | 0.924 | 0.956 | 0.949 | 1.04 | 0.798 | 0.698 | 0.756 | 0.684 | 0.751 | 0.764 | 0.969 | 1.02 | 0.902 | 1.06 | 0.794 | 0.838 | 0.853 | 0.884 | 0.89 | 0.754
26 | LC-2-ad | 0.971 | 1.09 | 0.892 | 1.12 | 0.761 | 0.87 | 0.79 | 0.65 | 0.875 | 0.574 | 0.936 | 0.91 | 0.789 | 0.962 | 0.794 | 0.247 | 0.268 | 0.277 | 0.271 | 0.281
27 | HCC-827 | 1.11 | 1.08 | 1.05 | 1.13 | 1.01 | 0.655 | 0.626 | 0.718 | 0.637 | 0.667 | 0.971 | 0.964 | 0.979 | 1.15 | 0.859 | 0.253 | 0.237 | 0.251 | 0.268 | 0.235
